Source: patent US20250213700A1, “COMPOUNDS, COMPOSITIONS, AND METHODS FOR CELL-SPECIFIC PHARMACOLOGY” (Duke University, priority 2022, published 2025)

Tested on: AMPAR
Assay: acute striatal brain slice electrophysiology, AMPAR antagonism
Type: cell-based, mouse
Protocol: Electrophysiology. Preparation of Brain slices: Mice (8-10 weeks) were injected AAV10 HaloTag™-dTomato to striatum or ventral tegmental area (VTA). After 3-5 weeks, mice were deeply anesthetized with isoflurane and euthanized by decapitation. Coronal brain slices ([…]) containing striatum or VTA were prepared by standard methods using a Vibratome (Leica, VT 1200S), in ice-cold high sucrose cutting solution containing (in mM) 220 sucrose, 3 KCl, 1.25 NaH2PO4, 25 NaHCO3, 12 MgSO4.7H2O, 10 glucose, and 0.2 CaCl2) bubbled with 95% O2 and 5% CO2. […]
Whole-cell patch-clamp recording: The brain slices or retinas were perfused with bubbled aCSF at 29-30° C. with a 2 ml/min flow rate. […] Series resistance was monitored using 5-10 mV hyperpolarizing step throughout the experiment, and cells were discarded if series resistance changed more than ˜15% during the experiment. […] Statistical significance was determined using Student's t or one-way or two-way ANOVA tests. eIPSCs or eEPSCs decay time constants were obtained by fitting a single-exponential function, I(t)=I exp(−t/T)+ISS, where I(t) is the amplitude of the current at time t and ISS is the steady-state current, I is instantaneous current subtracted from Iss, and t is the time constant of decay. […]

COc1cc(CCCCl)ccc1CCOCCNC(=O)c1ccc(CNC(=O)CCOCCOCCOCCOCCOCCOCCOCCOCCOCCOCCOCCOCCOCCOCCOCCOCCOCCOCCOCCOCCOCCOCCOCCOCCOCCOCCOCCOCCOCCOCCOCCOCCOCCOCCOCCOCCn2cc(COCCOCCOCCOCCOCCOCCNC(=O)CCCn3c(=O)c(=O)[nH]c4cc([N+](=O)[O-])c(-n5ccnc5)cc43)nn2)cc1 [YM90K.1DART.2]
acceleration in comparison to predecessor: ~10 fold | time to half-block of AMPAR (+HTP neurons, 0.3 µM dose): 5 min
